According to ChEMBL document CHEMBL1130534, “Potent antiinflammatory 3-thiazole-4(5)-acetic acids of 1,2-benzisothiazole” (1997):
Several values for one entry are separate records, joined by “and”; a condition that tells them apart may be missing. Equal values may be shown once.

Assays:
Type in all cases: functional
[1] = test system: Rattus norvegicus; experiment: Compound administered intraperitoneally was tested for antiinflammatory activity in carrageenan-induced rat paw edema assay after 3.5 hours; set-up: concentration or dose not given beside the values
[2] = test system: Rattus norvegicus; experiment: Compound administered orally was tested for antiinflammatory activity in carrageenan-induced rat paw edema assay after 2 hours; set-up: concentration or dose not given beside the values
[3] = test system: Rattus norvegicus; experiment: Compound administered orally was tested for antiinflammatory activity in carrageenan-induced rat paw edema assay after 3.5 hours; set-up: concentration or dose not given beside the values
[4] = test system: Rattus norvegicus; experiment: Compound administered intraperitoneally was tested for antiinflammatory activity in carrageenan-induced rat paw edema assay after 2 hours; set-up: concentration or dose not given beside the values
[5] = test system: Rattus norvegicus; experiment: Compound (50 mg/kg) administered intraperitoneally was tested for antiinflammatory activity in carrageenan induced rat paw edema assay after 2 hours
[6] = test system: Rattus norvegicus; experiment: Compound (50 mg/kg) administered intraperitoneally was tested for antiinflammatory activity in carrageenan induced rat paw edema assay after 3.5 hours
[7] = test system: Rattus norvegicus; experiment: Compound (50 mg/kg) administered orally was tested for antiinflammatory activity in carrageenan-induced rat paw edema assay after 2 hours

Compound	Inhibition [1] [%]	Inhibition [2] [%]	Inhibition [3]	Inhibition [4] [%]	Inhibition [5] [%]	Inhibition [6] [%]	Inhibition [7] [%]
CCOC(=O)Cc1sc(-c2nsc3ccccc23)nc1-c1ccc(OC)cc1	30	20	29%	34			
O=C(O)Cc1csc(-c2nsc3ccccc23)n1	64	64	46%	55			
CC(C)Cc1ccc(C(C)C(=O)O)cc1 (configuration not stated) [IBUPROFEN]	74	62	65%	70			
CCOC(=O)Cc1csc(-c2nsc3ccccc23)n1		18	11%				
CCOC(=O)Cc1sc(-c2nsc3ccccc23)nc1-c1ccc(Cl)cc1	13	34	22%	24			
O=C(O)Cc1sc(-c2nsc3ccccc23)nc1-c1ccc(Cl)cc1	67	75	62% and 61%	78	76	64	69
CCOC(=O)Cc1sc(-c2nsc3ccccc23)nc1-c1ccccc1	<10	<10	11%	<10			
O=C(O)Cc1sc(-c2nsc3ccccc23)nc1-c1ccccc1	7	15	19%	45			
COc1ccc(-c2nc(-c3nsc4ccccc34)sc2CC(=O)O)cc1	24	36	33%	40			
